We go through three compounds from US20110034565A1, “PSYCHO-PHARMACEUTICALS” (University College Dublin, National University of Ireland, …, priority 2008, published 2011).

Data set [1] has as its system C57B16 mice. As to the kind of experiment: Novel object recognition (NOR) test. In kind it is in vivo. The settings on record: FIG. 4. The source says:
This test is useful for evaluating the role of experimental manipulations on cognition. The recognition test is based on the natural tendency of rodents to investigate a novel object instead of a familiar one. The choice to explore the novel object reflects the use of learning and (recognition) memory processes. Novel Object Recognition (NOR) is based on the premise that rodents will explore a novel object more than a familiar one, but only if they remember the familiar one. This tendency is actually shared by humans, as looking time is often used to make inferences about an infant's memory in the absence of explicit, verbal recognition.
Before training the animals with objects, they are first allowed to acclimatise to the testing environment, a white Perspex box (30 cm by 20 cm) equipped with an overhead camera. After an acclimation session, the animals are ready for the training stage. […]
The amount of time that the rodents spends exploring each object can be calculated by hand or by using a computer program receiving input from the overhead camera. […]

For a further data set, the system named is rats reared in isolation. As to the kind of experiment: Pre-pulse inhibition (PPI) of the startle response in rats reared in isolation. The data set is classed as in vivo. The settings on record: 20 mg/kg, p<0.05, two-way ANOVA, FIG. 5B. An excerpt:
This reduction or inhibition of startle is not observed in the isolated animals.
One of the most robust, non-invasive rodent models used for studies relating to schizophrenia is isolation rearing of rats (Weiss and Feldon, 2001; Fone and Porkess, 2008). […] PPI is used as an operational measure of sensorimotor gating and is known to be defective in schizophrenics (Swerdlow et al., 1994; Ludewig et al., 2002). […] Reduction or inhibition of startle is not observed in the isolated animals control.

Data set [2] has as its system C57B16 mice. As to the kind of experiment: Neurobehavioural screening (modified SHIRPA protocol), neophobia. The settings on record: chronic administration protocol, 1 dose/day prior to testing. The data set is classed as in vivo. As for the experimental part: The Experimental protocol employed in the behavioural evaluation of Meparfynol is outlined in FIG. 7. Two separate cohorts of C57B16 mice were employed. Cohort 1 was used to evaluate the drug effect on prepulse inhibition, open-field and novel object recognition. Cohort 2 was used to evaluate drug effects on spatial learning. The behavioural tests were administered in sequence as per day number indicated in the bar. The drug was administered by the intraperitoneal route and on the day of training the drug was administered after the behavioural analysis. Meparfynol/UCD-1216 was administered at doses of 20 and 50 mg/kg. The compounds were administered once daily, via the intraperitoneal route, for 7 days prior to testing and the animals were drug-free at time of training.
A modified SHIRPA protocol was adopted in order to provide an in vivo drug profile. The SHIRPA protocol is used in both academic and industrial environments for an initial behavioural characterisation of potential psychopharmaceuticals. The first behavioural tier analysis of our modified screen comprised open-field (FIG. 3), novel object recognition (NOR; FIG. 4), and pre-pulse inhibition (PPI; FIGS. 5A and 5B) paradigms. These psycho-pharmacological tests are described in more detail below: […]

In data set [3] the test system is receptors (cell lines that express only one type of receptor). Nature of the data set: Novascreen receptor affinity screen (competition with a reference ligand). The note with it: 1 μM Meparfynol, all top ranking receptors; FIG. 8C. In kind it is binding. The procedure: Analysis of receptor affinities was performed by Novascreen™ (www.novascreen.com) and those displacing >20% of the natural ligand are indicated by the filled boxes. Blood levels of Mepfarynol were determined by GC mass spectroscopy in separate samples taken from a cannulated jugular at increasing time intervals following a single intraperitoneal injection of the drug ([…]).
The higher the target inhibition value, the greater the affinity Meparfynol has for this particular receptor as it displaces a greater proportion of the reference ligand. This assay is an automated high throughput assay performed on cell lines that express only one type of receptor and was carried out by Novascreen (www.novascreen.com).

In data set [4] the test system is C57B16 mice. Nature of the data set: Pre-pulse inhibition (PPI) of the startle response in mice. The data set is classed as in vivo. The note with it: 20 mg/kg i.p., FIG. 5A. The source says: Prepulse inhibition is a procedure whereby a preceding stimulus attenuates the startle response. The reduced ability to filter out irrelevant auditory stimulation is a characteristic which is thought to contribute to certain manifestations of conditions including inattention, distractibility, and cognitive deficits. The test is quite useful for evaluating transgenic models of schizophrenia as well as to screen potential antipsychotic drugs.
An example of one way of testing for PPI: In the prepulse inhibition (PPI) procedure, the rodent is placed in a small chamber and exposed to a brief pulse of noise. […]
The main three parts of the procedure are prepulse, startle stimulus, and startle reflex. […] Startle response is measured in rodents using the so-called automated “startle chambers” or “stabilimeter chambers”, with detectors recording whole-body reaction. In humans, the movements of oculomotor muscles (“eye-blink reflex” or “eye-blink response” assessed using electromyographic recording of orbicularis oculi muscle and by oculography) could be used as a measure. […]
Mepfarynol was administered by the intraperitoneal route at the doses indicated and as per details outlined above. Values were analysed using a two way ANOVA and Student t-test and those with a p value<0.05 were accepted as significant and where appropriate are indicated with an asterisk.

Data set [5] deals with C57B16 mice. As to the kind of experiment: Water maze spatial learning. In kind it is in vivo. The settings on record: i.p. once daily prior to testing, FIG. 6. The procedure:
The Morris water maze (MWM) is a test of spatial learning for rodents that relies on distal cues to navigate from start locations around the perimeter of an open swimming arena to locate a submerged escape platform. Spatial learning is assessed across repeated trials and reference memory is determined by preference for the platform area when the platform is absent.
The test apparatus consists of a large circular pool (1 m diameter, 80 cm high, temperature 26° C.) with a platform (11 cm diameter) submerged 1.5 cm below the surface. Both the pool and the platform were constructed of black polyvinyl plastic, which offered no intra-maze cues. The experimental room contained several extra-maze visual cues. During training the platform was hidden in the same quadrant 30 cm away from the edge of the maze. There were five trials, each of them beginning with the rat facing the wall of the maze in one of three different locations. The time taken for the rat to find the platform within a 90s period was recorded. Probe trials where the platform was removed from the maze and the time the animal spent in the target quadrant were also performed. […]
Finally, drugs inducing neurobehavioural profile are evaluated in the water maze spatial learning paradigm, a robust task of information acquisition and consolidation—a measure of cognitive action

In data set [6] the test system is C57B16 mice. Nature of the data set: Open field test. In kind it is in vivo. The settings on record: 20 and 50 mg/kg i.p. once daily for 7 days prior to testing, FIG. 3. The source says: The Open Field test is designed to measure behavioural responses such as locomotor activity, hyperactivity, and exploratory behaviors. Open Field is also used as a measure of anxiety. Rats and mice tend to avoid brightly illuminated, novel, open spaces, so the open field environment acts as an anxiogenic stimulus and allows for measurement of anxiety-induced locomotor activity and exploratory behaviours. Open field testing is a one trial test with little or no impact on the animal's subsequent behaviour. The apparatus for the Open Field test was a square (100 cm by 100 cm) made of white Perspex. Each rat is placed in a corner of the field and its behaviour recorded for five minutes. All activity is recorded by a video camera mounted above the open field and scored in real-time (or digitized and scored later) by the advanced motion-recognition software package Ethovision by Noldus, that detects and analyzes the movements of the rat or mouse. The total distance, average speed, rearing/elongation behaviour, and time spent in various parts of the field (such as, for example, the border areas vs. the open, middle area) is measured and analysed. Testing is carried out in a temperature, noise and light controlled room.
The Experimental protocol employed in the behavioural evaluation of Meparfynol is outlined in FIG. 7. Two separate cohorts of C57B16 mice were employed. […]

The conditions of data set [7]: in vivo; cited from earlier work.
The next data set concerns frontal cortex. The note with it: after administration; Society for Neuroscience meeting November 2000; cited from earlier work.

Molecules are shown by their SMILES. Entries after “also recorded” stand apart in the source; their conditions may differ.

Regarding `C#C[C@](C)(O)CC` (stereo in doubt) [Meparfynol, 3-methylpent-1-yn-3-ol], in the data set with C57B16 mice [1] (20 and 50 mg/kg i.p. once daily for 7 days prior to testing), the “working memory as measured by the NOR test (exploratory bias for the novel object)” value was “modest enhancement”. Besides, in the data set with C57B16 mice [1] (compared to the vehicle-treated controls), the “novel object exploratory time” value is given as “significantly reduced”. The “pre-pulse inhibition of startle response” value in the data set with rats reared in isolation and with C57B16 mice [4] was “significantly enhances” throughout. In the data set with C57B16 mice [2], the “neophobia (fear of anything new)” value is listed as “reduced neophobia”. In addition, the “percent target inhibition (reference ligand prevented from binding)” value in data set [3] is “less than 20%”. Also, the “spatial learning in the water maze” value in the data set on C57B16 mice [5] is on record as “enhanced spatial learning; also recorded: significant pro-cognitive actions”. Besides, the “effect in the open-field paradigm (locomotor activity)” value with C57B16 mice [6] is reported as “little effect”.

In the case of `CC12CC3CC(C)(C1)CC(N)(C3)C2` [Memantine, 1-amino-3,5-dimethyl adamantane], the “administered dose excreted unchanged in urine” value in data set [7] is 57-82%.

In the case of `COc1ccc(NS(=O)(=O)c2sc3ccc(Cl)cc3c2C)cc1N1CCNCC1` [SB-271046], in the data set on frontal cortex, the “glutamate and aspartate levels in the frontal cortex” value was “significant increase”; the “noradrenaline, dopamine or 5-HT levels” value is recorded as “without affecting”.
